Laboratory results reported in ChEMBL document CHEMBL4665805, “Expression of the Clifednamide Biosynthetic Pathway in Streptomyces Generates 27,28-seco-Derivatives” (J Nat Prod, 2020).
Active and inactive are the calls of the source. No cut-off for these calls is given here.

These molecules were tested on Fusarium graminearum (assay: Antimicrobial activity against Fusarium graminearum at 50 microg/disk by disc diffusion assay). Conditions: dose 50.0 µg/disk.
Assay type: functional, organism-based
In the case of `C[C@@H]1C[C@H]2[C@@H](C=C[C@@H]3[C@H]4C/C=C\C(=O)NCC[C@H](O)[C@@H]5NC(=O)C(=C5O)C(=O)/C=C/[C@@H]4C[C@@H]32)[C@@H]1C(=O)CO`, the Activity is reported as “inactive”.
With `CC(=O)[C@H]1[C@@H]2C=C[C@@H]3[C@H]4C/C=C\C(=O)NCC[C@H](O)[C@@H]5NC(=O)C(=C5O)C(=O)/C=C/[C@@H]4C[C@@H]3[C@H]2C[C@H]1C` the Activity was “inactive”.
In the case of `CC(O)[C@H]1[C@@H]2C=C[C@@H]3/C=C/C=C/C(=O)NCC[C@H](O)[C@@H]4NC(=O)C(=C4O)C(=O)/C=C/C=C/[C@@H]3[C@H]2C[C@H]1C` (some centres not stated), the Activity is reported as “inactive”.
In the case of `CC(=O)[C@H]1[C@@H]2C=C[C@H](/C=C/C=C/C(N)=O)[C@H](/C=C/C=C/C(=O)C3=C(O)[C@H](CCC(=O)O)NC3=O)[C@H]2C[C@H]1C`, the Activity is reported as “inactive”.

What follows are molecules tested on Xanthomonas oryzae (assay: Antimicrobial activity against Xanthomonas oryzae pv. oryzicola RS105 at 20 microg/disk by disc diffusion assay). Conditions: dose 20.0 µg/disk.
Assay type: functional
`C[C@@H]1C[C@H]2[C@@H](C=C[C@@H]3[C@H]4C/C=C\C(=O)NCC[C@H](O)[C@@H]5NC(=O)C(=C5O)C(=O)/C=C/[C@@H]4C[C@@H]32)[C@@H]1C(=O)CO` was tested, and the Activity was “inactive”.
With `CC(=O)[C@H]1[C@@H]2C=C[C@@H]3[C@H]4C/C=C\C(=O)NCC[C@H](O)[C@@H]5NC(=O)C(=C5O)C(=O)/C=C/[C@@H]4C[C@@H]3[C@H]2C[C@H]1C` the Activity was “inactive”.
With `CC(O)[C@H]1[C@@H]2C=C[C@@H]3/C=C/C=C/C(=O)NCC[C@H](O)[C@@H]4NC(=O)C(=C4O)C(=O)/C=C/C=C/[C@@H]3[C@H]2C[C@H]1C` (some centres not stated) the Activity was “inactive”.
`CC(=O)[C@H]1[C@@H]2C=C[C@H](/C=C/C=C/C(N)=O)[C@H](/C=C/C=C/C(=O)C3=C(O)[C@H](CCC(=O)O)NC3=O)[C@H]2C[C@H]1C` was tested, and the Activity was “inactive”.

The molecules below were run on MIA PaCa-2 (assay: Cytotoxicity against human MIA PaCa-2 cells assessed as reduction in cell viability by MTT assay). Conditions: not given.
Assay type: functional, cell-based
With `COc1cccc2c1C(=O)c1c(O)c3c(c(O)c1C2=O)C[C@@](O)(C(=O)CO)C[C@@H]3O[C@H]1C[C@H](N)[C@H](O)[C@H](C)O1` [DOXORUBICIN] the IC50 was 430 nM.
`CC(=O)[C@H]1[C@@H]2C=C[C@@H]3[C@H]4C/C=C\C(=O)NCC[C@H](O)[C@@H]5NC(=O)C(=C5O)C(=O)/C=C/[C@@H]4C[C@@H]3[C@H]2C[C@H]1C` showed an IC50 of 1000 nM.
Molecule `CC(=O)[C@H]1[C@@H]2C=C[C@H](/C=C/C=C/C(N)=O)[C@H](/C=C/C=C/C(=O)C3=C(O)[C@H](CCC(=O)O)NC3=O)[C@H]2C[C@H]1C` has an IC50 of 9600 nM.

The molecules below were run on Bacillus subtilis (assay: Antimicrobial activity against Bacillus subtilis at 20 microg/disk by disc diffusion assay). Conditions: dose 20.0 µg/disk.
Assay type: functional, organism-based
In the case of `C[C@@H]1C[C@H]2[C@@H](C=C[C@@H]3[C@H]4C/C=C\C(=O)NCC[C@H](O)[C@@H]5NC(=O)C(=C5O)C(=O)/C=C/[C@@H]4C[C@@H]32)[C@@H]1C(=O)CO`, the Activity is reported as “inactive”.
For `CC(=O)[C@H]1[C@@H]2C=C[C@@H]3[C@H]4C/C=C\C(=O)NCC[C@H](O)[C@@H]5NC(=O)C(=C5O)C(=O)/C=C/[C@@H]4C[C@@H]3[C@H]2C[C@H]1C`, the Activity was “inactive”.
With `CC(O)[C@H]1[C@@H]2C=C[C@@H]3/C=C/C=C/C(=O)NCC[C@H](O)[C@@H]4NC(=O)C(=C4O)C(=O)/C=C/C=C/[C@@H]3[C@H]2C[C@H]1C` (some centres not stated) the Activity was “inactive”.
With `CC(=O)[C@H]1[C@@H]2C=C[C@H](/C=C/C=C/C(N)=O)[C@H](/C=C/C=C/C(=O)C3=C(O)[C@H](CCC(=O)O)NC3=O)[C@H]2C[C@H]1C` the Activity was “inactive”.

These molecules were tested on Streptomyces sp. (assay: Antimicrobial activity against Streptomyces sp. S001 at 20 microg/disk by disc diffusion assay). Conditions: dose 20.0 µg/disk.
Assay type: functional, organism-based
With `C[C@@H]1C[C@H]2[C@@H](C=C[C@@H]3[C@H]4C/C=C\C(=O)NCC[C@H](O)[C@@H]5NC(=O)C(=C5O)C(=O)/C=C/[C@@H]4C[C@@H]32)[C@@H]1C(=O)CO` the Activity was “inactive”.
`CC(=O)[C@H]1[C@@H]2C=C[C@@H]3[C@H]4C/C=C\C(=O)NCC[C@H](O)[C@@H]5NC(=O)C(=C5O)C(=O)/C=C/[C@@H]4C[C@@H]3[C@H]2C[C@H]1C` was tested, and the Activity was “inactive”.
With `CC(O)[C@H]1[C@@H]2C=C[C@@H]3/C=C/C=C/C(=O)NCC[C@H](O)[C@@H]4NC(=O)C(=C4O)C(=O)/C=C/C=C/[C@@H]3[C@H]2C[C@H]1C` (some centres not stated) the Activity was “inactive”.
`CC(=O)[C@H]1[C@@H]2C=C[C@H](/C=C/C=C/C(N)=O)[C@H](/C=C/C=C/C(=O)C3=C(O)[C@H](CCC(=O)O)NC3=O)[C@H]2C[C@H]1C` was tested, and the Activity was “inactive”.

Each molecule was assayed on Pythium aphanidermatum (assay: Antimicrobial activity against Pythium aphanidermatum at 50 microg/disk by disc diffusion assay). Conditions: dose 50.0 µg/disk.
Assay type: functional, organism-based
In the case of `C[C@@H]1C[C@H]2[C@@H](C=C[C@@H]3[C@H]4C/C=C\C(=O)NCC[C@H](O)[C@@H]5NC(=O)C(=C5O)C(=O)/C=C/[C@@H]4C[C@@H]32)[C@@H]1C(=O)CO`, the Activity is reported as “inactive”.
`CC(=O)[C@H]1[C@@H]2C=C[C@@H]3[C@H]4C/C=C\C(=O)NCC[C@H](O)[C@@H]5NC(=O)C(=C5O)C(=O)/C=C/[C@@H]4C[C@@H]3[C@H]2C[C@H]1C` was tested, and the Activity was “inactive”.
In the case of `CC(O)[C@H]1[C@@H]2C=C[C@@H]3/C=C/C=C/C(=O)NCC[C@H](O)[C@@H]4NC(=O)C(=C4O)C(=O)/C=C/C=C/[C@@H]3[C@H]2C[C@H]1C` (some centres not stated), the Activity is reported as “inactive”.
`CC(=O)[C@H]1[C@@H]2C=C[C@H](/C=C/C=C/C(N)=O)[C@H](/C=C/C=C/C(=O)C3=C(O)[C@H](CCC(=O)O)NC3=O)[C@H]2C[C@H]1C` was tested, and the Activity was “inactive”.

Each molecule was assayed on Staphylococcus aureus (assay: Antimicrobial activity against Staphylococcus aureus ATCC 25923 at 20 microg/disk by disc diffusion assay). Conditions: dose 20.0 µg/disk.
Assay type: functional, organism-based
In the case of `C[C@@H]1C[C@H]2[C@@H](C=C[C@@H]3[C@H]4C/C=C\C(=O)NCC[C@H](O)[C@@H]5NC(=O)C(=C5O)C(=O)/C=C/[C@@H]4C[C@@H]32)[C@@H]1C(=O)CO`, the Activity is reported as “inactive”.
For `CC(=O)[C@H]1[C@@H]2C=C[C@@H]3[C@H]4C/C=C\C(=O)NCC[C@H](O)[C@@H]5NC(=O)C(=C5O)C(=O)/C=C/[C@@H]4C[C@@H]3[C@H]2C[C@H]1C`, the Activity was “inactive”.
`CC(O)[C@H]1[C@@H]2C=C[C@@H]3/C=C/C=C/C(=O)NCC[C@H](O)[C@@H]4NC(=O)C(=C4O)C(=O)/C=C/C=C/[C@@H]3[C@H]2C[C@H]1C` (some centres not stated) was tested, and the Activity was “inactive”.
`CC(=O)[C@H]1[C@@H]2C=C[C@H](/C=C/C=C/C(N)=O)[C@H](/C=C/C=C/C(=O)C3=C(O)[C@H](CCC(=O)O)NC3=O)[C@H]2C[C@H]1C` was tested, and the Activity was “inactive”.

What follows are molecules tested on Salmonella typhimurium (assay: Antimicrobial activity against Salmonella enterica serovar Typhimurium UK-1 x8956 at 20 microg/disk by disc diffusion assay). Conditions: Salmonella enterica subsp. enterica serovar Typhimurium, dose 20.0 µg/disk.
Assay type: functional, organism-based
In the case of `C[C@@H]1C[C@H]2[C@@H](C=C[C@@H]3[C@H]4C/C=C\C(=O)NCC[C@H](O)[C@@H]5NC(=O)C(=C5O)C(=O)/C=C/[C@@H]4C[C@@H]32)[C@@H]1C(=O)CO`, the Activity is reported as “inactive”.
`CC(=O)[C@H]1[C@@H]2C=C[C@@H]3[C@H]4C/C=C\C(=O)NCC[C@H](O)[C@@H]5NC(=O)C(=C5O)C(=O)/C=C/[C@@H]4C[C@@H]3[C@H]2C[C@H]1C` was tested, and the Activity was “inactive”.
For `CC(O)[C@H]1[C@@H]2C=C[C@@H]3/C=C/C=C/C(=O)NCC[C@H](O)[C@@H]4NC(=O)C(=C4O)C(=O)/C=C/C=C/[C@@H]3[C@H]2C[C@H]1C` (some centres not stated), the Activity was “inactive”.
`CC(=O)[C@H]1[C@@H]2C=C[C@H](/C=C/C=C/C(N)=O)[C@H](/C=C/C=C/C(=O)C3=C(O)[C@H](CCC(=O)O)NC3=O)[C@H]2C[C@H]1C` was tested, and the Activity was “inactive”.

The molecules below were run on A549 (assay: Cytotoxicity against human A549 cells assessed as reduction in cell viability by MTT assay). Conditions: not given.
Assay type: functional, cell-based
`CC(=O)[C@H]1[C@@H]2C=C[C@@H]3[C@H]4C/C=C\C(=O)NCC[C@H](O)[C@@H]5NC(=O)C(=C5O)C(=O)/C=C/[C@@H]4C[C@@H]3[C@H]2C[C@H]1C` gave an IC50 of 530 nM.
